Measurements published in patent publication US20250332173A1, “COMPOUNDS AND METHODS FOR MODULATING NUCLEIC ACID SPLICING” (REMIX THERAPEUTICS INC., priority 2021, published 2025).

Assays:
SMN2 mRNA = test: RT-qPCR splicing assay, SMN2 canonical junction (CJ) mRNA; type: cell-based, human; conditions: Homo sapiens; Table 5 panel; canonical junction qPCR; compound concentration having 50% response in CJ decrease; read-out: SMN2 IC50 (decrease in CJ mRNA levels)
Method in brief: (§1)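 K562/A673 cells, 11-pt 3-fold compound titration from 10 uM final, DMSO ≤0.25%, 24 h 37 °C 5% CO2; lyse (DNase I or Igepal/Tris buffer pH 7.4); RT-qPCR for CJ isoform vs housekeeping gene (GAPDH/GUSB/PPIA).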

Target C [1] = test: RT-qPCR splicing assay panel, Target C canonical junction (CJ) mRNA; type: cell-based, human; conditions: Homo sapiens; Table 5 panel; canonical junction qPCR; compound concentration having 50% response in CJ decrease; read-out: Target C IC50 (decrease in CJ mRNA levels)
Method in brief: as §1

Target C [2] = test: HiBiT protein abundance assay, Target C (Promega Nano-Glo HiBiT Lytic Detection System, knock-in K562 cell line); type: cell-based, human; conditions: Homo sapiens, K562, 24 h, HiBiT K562 cell line, 24 hours, top dose 10 μM; read-out: Effect on protein abundance, Target C (IC50 category)
Method in brief: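 Knock-in K562 cells carrying HiBiT-tagged Target C, 10,000 per well, treated 24 h at 37 °C with 10-point threefold dilutions (top 10 μM final, ≤0.25% DMSO). Lytic HiBiT luminescence read; response normalised to unmodified K562 and DMSO controls, four-parameter fit interpolated at 50% for IC50.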

[3] = tested on: K562 (human chronic myelogenous leukemia) cells; test: Cell Titer Glo 2.0 cell viability assay; type: cell-based; conditions: Homo sapiens, K562, 72 h, K562 cells, 72 hours, Cell Titer Glo 2.0; read-out: K562 GI50

Row | Compound | IC50 (SMN2 mRNA) [nM] | IC50 (Target C [1]) [nM] | IC50 (Target C [2]) [nM] | GI50 [3] [nM]
1 | CCN1CCC(n2ccc3cc(-c4cc(C)c5nc(C)cn5n4)ccc3c2=O)CC1 [Compound 402, 6-{2,8-dimethylimidazo[1,2-b]pyridazin-6-yl}-2-(1-ethylpiperidin-4-yl)isoquinolin-1-one] | < 100 | 100 to 1000 | 100 to 1000 | 100 to 1000
2 | Cc1cn2nc(-c3cc(F)c4c(=O)n([C@H]5CCNC6(CC6)C5)ncc4c3)cc(C)c2n1 [Compound 447] | < 100 | < 100 | < 100 | 100 to 1000
3 | Cn1cc2cc(-c3cc(F)c4c(=O)n(C5CCNCC5)ccc4c3)cc(C#N)c2n1 [Compound 394, 5-(8-fluoro-1-oxo-2-(piperidin-4-yl)-1,2-dihydroisoquinolin-6-yl)-2-methyl-2H-indazole-7-carbonitrile] | < 100 | 100 to 1000 | < 100 | < 100
4 | Cn1cc2cc(-n3cnc4cc(NC5CCNCC5)ccc4c3=O)ccc2n1 [Compound 162] | > 10000 |  | > 10000 | 
5 | Cc1cn2nc(-c3ccc4c(=O)n(C5CCCNC5)ccc4c3)cc(C)c2n1 (stereo in doubt) [Compound 411, 6-{2,8-dimethylimidazo[1,2-b]pyridazin-6-yl}-2-[(3R)-piperidin-3-yl]isoquinolin-1-one] | 100 to 1000 | > 10000 | 1000 to 10000 | 1000 to 10000
6 | Cc1cn2cc(-c3ccc4c(=O)n([C@H]5CCCNC5)ccc4c3)cc(F)c2n1 [Compound 404, 6-{8-fluoro-2-methylimidazo[1,2-a]pyridin-6-yl}-2-[(3S)-piperidin-3-yl]isoquinolin-1-one] | < 100 | > 10000 | 1000 to 10000 | 1000 to 10000
7 | COc1cc(-c2cc(C)c3nc(C)cn3n2)cc2ccn(C3CCNCC3)c(=O)c12 [Compound 399, 6-{2,8-dimethylimidazo[1,2-b]pyridazin-6-yl}-8-methoxy-2-(piperidin-4-yl)isoquinolin-1-one] | < 100 | 1000 to 10000 | 100 to 1000 | 100 to 1000
8 | Cc1cn2nc(-c3cc(F)c4c(=O)n([C@H]5CCNC6(CC6)C5)ccc4c3)cc(C)c2n1 (single isomer, unassigned) [Compound 426] | < 100 | < 100 | < 100 | < 100
9 | Cc1cc(-c2cc(F)c3c(=O)n(C4CCNC5(CC5)C4)ccc3c2)nc2cn(C)nc12 (centres unmarked) [Compound 431] | < 100 | 100 to 1000 | < 100 | 100 to 1000
10 | Cc1cn2nc(-c3cc(C)c4c(=O)n(C5CCNC6(CC6)C5)ccc4c3)cc(C)c2n1 (stereo in doubt) [Compound 397, (S)-6-(2,8-dimethylimidazo[1,2-b]pyridazin-6-yl)-8-methyl-2-(4-azaspiro[2.5]octan-7-yl)isoquinolin-1(2H)-one] | < 100 | 100 to 1000 | < 100 | 100 to 1000
11 | Cc1cn2nc(-c3cc(F)c4c(=O)n(C5CCN(C)CC5)ccc4c3)cc(C)c2n1 [Compound 400, 6-(2,8-dimethylimidazo[1,2-b]pyridazin-6-yl)-8-fluoro-2-(1-methylpiperidin-4-yl)isoquinolin-1(2H)-one] | < 100 | 100 to 1000 | < 100 | 100 to 1000
12 | Cc1cn2nc(-c3cc(O)c4c(=O)n(C5CCNCC5)ccc4c3)cc(C)c2n1 [Compound 391, 6-(2,8-dimethylimidazo[1,2-b]pyridazin-6-yl)-8-hydroxy-2-(piperidin-4-yl)isoquinolin-1(2H)-one] | < 100 | < 100 | < 100 | < 100
13 | Cc1cn2cc(-c3cc(F)c4c(=O)n(C5CCNC6(CC6)C5)ccc4c3)cc(C)c2n1 (centres unmarked) [Compound 416, 2-{4-azaspiro[2.5]octan-7-yl}-6-{2,8-dimethylimidazo[1,2-a]pyridin-6-yl}-8-fluoroisoquinolin-1-one] | < 100 | 100 to 1000 | < 100 | < 100
14 | Cc1cn2cc(-c3ccc4c(=O)n(C5CCNC5)cc(C)c4c3)cc(C#N)c2n1 (centres unmarked) [Compound 442, 2-methyl-6-[4-methyl-1-oxo-2-(pyrrolidin-3-yl)isoquinolin-6-yl]imidazo[1,2-a]pyridine-8-carbonitrile] | 1000 to 10000 | > 10000 | > 10000 | > 10000
15 | Cc1cn2nc(-c3cc(F)c4c(=O)n([C@@H]5CCNC6(CC6)C5)ccc4c3)cc(C)c2n1 (single isomer, unassigned) [Compound 425] | < 100 | < 100 | < 100 | < 100
16 | CN1C2C=C(c3ccc4c(=O)n(-c5ccc6nn(C)cc6c5)cnc4c3)CC1CC2 (centres unmarked) [Compound 161] | > 10000 | > 10000 | > 10000 | > 10000
17 | Cc1cn2cc(-c3cc(F)c4c(=O)n(C5CCNCC5)cc(C)c4c3)cc(F)c2n1 [Compound 461, 8-fluoro-6-{8-fluoro-2-methylimidazo[1,2-a]pyridin-6-yl}-4-methyl-2-(piperidin-4-yl)isoquinolin-1-one] | < 100 | 100 to 1000 | 100 to 1000 | < 100
18 | Cc1cn2nc(-c3ccc4c(=O)n([C@H]5CCNC[C@H]5F)cnc4c3)cc(C)c2n1 [Compound 372] | < 100 | 1000 to 10000 | 1000 to 10000 | 1000 to 10000
19 | Cc1cn2cc(-c3cc(F)c4c(=O)n(C5CCOC5)cnc4c3)cc(C#N)c2n1 (centres unmarked) [Compound 366, 6-[5-fluoro-4-oxo-3-(oxolan-3-yl)quinazolin-7-yl]-2-methylimidazo[1,2-a]pyridine-8-carbonitrile] | 1000 to 10000 | 1000 to 10000 | 1000 to 10000 | 1000 to 10000
20 | Cc1cn2nc(-c3cc(Cl)c4c(=O)n(C5CCNCC5)ccc4c3)cc(C)c2n1 [Compound 390, 8-chloro-6-{2,8-dimethylimidazo[1,2-b]pyridazin-6-yl}-2-(piperidin-4-yl)isoquinolin-1-one; trifluoroacetaldehyde] | < 100 | < 100 | < 100 | < 100
21 | Cc1nc2c(C)cc(-c3cc(F)c4c(=O)n(C5CCNC6(CC6)C5)ccc4c3)cc2o1 (centres unmarked) [Compound 418, 2-{4-azaspiro[2.5]octan-7-yl}-6-(2,4-dimethyl-1,3-benzoxazol-6-yl)-8-fluoroisoquinolin-1-one] | < 100 | 100 to 1000 | < 100 | 100 to 1000
22 | Cn1cc2cc(-c3cc(F)c4c(=O)n(C5CCNC6(CC6)C5)ccc4c3)c(O)c(F)c2n1 (centres unmarked) [Compound 420, 2-{4-azaspiro[2.5]octan-7-yl}-8-fluoro-6-(7-fluoro-6-hydroxy-2-methylindazol-5-yl)isoquinolin-1-one] | < 100 | 1000 to 10000 | 1000 to 10000 | 1000 to 10000
23 | Cc1cn2cc(-c3cc(F)c4c(=O)n([C@H]5CCNC5)ccc4c3)cc(F)c2n1 (single isomer, unassigned) [Compound 396] | < 100 | > 10000 | 100 to 1000 | 100 to 1000
24 | Cc1cn2cc(-c3cc(F)c4c(=O)n(C5CCNC5)ccc4c3)cc(C#N)c2n1 (centres unmarked) [Compound 434, 6-[8-fluoro-1-oxo-2-(pyrrolidin-3-yl)isoquinolin-6-yl]-2-methylimidazo[1,2-a]pyridine-8-carbonitrile] | < 100 | > 10000 | > 10000 | 1000 to 10000
25 | Cc1cn2nc(-c3cc(F)c4c(=O)n(C5CCNC5)ccc4c3)cc(C)c2n1 (stereo in doubt) [Compound 382, (R)-6-(2,8-dimethylimidazo[1,2-b]pyridazin-6-yl)-8-fluoro-2-(pyrrolidin-3-yl)isoquinolin-1(2H)-one] | < 100 | > 10000 | 1000 to 10000 | 1000 to 10000
26 | Cc1cn2cc(-c3cc(F)c4c(=O)n([C@@H]5CCNC5)ccc4c3)cc(F)c2n1 (single isomer, unassigned) [Compound 395] | < 100 | > 10000 | 1000 to 10000 | 100 to 1000
27 | Cc1cn2cc(-c3ccc4c(=O)n(C5CCNC5)cc(C)c4c3)cc(F)c2n1 (centres unmarked) [Compound 441, 6-{8-fluoro-2-methylimidazo[1,2-a]pyridin-6-yl}-4-methyl-2-(pyrrolidin-3-yl)isoquinolin-1-one] | 100 to 1000 | > 10000 | > 10000 | 1000 to 10000
28 | Cc1cn2nc(-c3cc(O)c4c(=O)n(C5CCNC5)cc(C)c4c3)cc(C)c2n1 (centres unmarked) [Compound 462] | 100 to 1000 | > 10000 | 1000 to 10000 | 1000 to 10000
29 | Cc1cc(-c2ccc3c(=O)n(C4CCNCC4)cnc3c2)cc2cn(C)nc12 [Compound 174] | < 100 |  | 100 to 1000 | 100 to 1000
30 | Cc1cc(-c2ccc3c(=O)n(C4CCN(C)CC4)cnc3n2)cc2cn(C)nc12 [Compound 173] | 1000 to 10000 |  | > 10000 | 1000 to 10000
